Source: US11662342B2, “Barrier function measurements” (MIMETAS B.V., priority 2015, dated 2023)

Legend:
Caco-2 tubules [1] = experiment: Loss of barrier function of gut tubule (Caco-2) exposed to aspirin (TRITC-dextran 150 kDa); format: cell-based, human; settings: for loss of barrier integrity: imaged every hour for 24 hours
Text: FIG. 11 depicts the loss of barrier function of a gut tubule exposed to aspirin. […] However, the lack of data on concentrations with a maximum response hinders accurate EC50 estimation.

MDCK tubules [2] = format: cell-based, canine
Text: The 3 lane OrganoPlate® offers the unique possibility to add a compound from only the apical or the basolateral side of the tubular structure. […] Actively transported compounds can have directionality in the trans-cellular transport, as is for example the situation in the renal proximal tubules, where moving compounds specifically from the apical side of the tube to the basolateral side, or the other way around, is part of the renal filtering function. This implies toxic compounds that are actively transported by the proximal tubule cells can have a different effect depending on the location of exposure. The anti-cancer drug cisplatin is taken up by cells by the OCT-2 transporter that is expressed on the basal side of the epithelial monolayer. MDCK cells were seeded in the top channel of a 200 μm 3 lane OrganoPlate® against a collagen I ECM at 10E6 cells/mL. Three days after seeding MDCK tubules were exposed to increasing concentrations of cisplatin from either the apical or basal side by replacing the medium either in the top medium channel, or in the bottom medium channel, with medium with cisplatin. At the start of the exposure the medium in the top channel was also supplied with a fluorescent leakage marker, FITC-dextran 150 kDa.

Caco-2 tubules [3] = experiment: Time-to-leak barrier integrity assay, human gut tubule (Caco-2) exposed to staurosporin (TRITC-dextran 150 kDa); settings: Caco-2 tubes; imaged every hour for 13 hours; normalized TRITC-dextran fluorescence
Procedure: The Caco-2 cell line (Sigma, human colon carcinoma cells) was seeded in a 400 μm 3 lane OrganoPlate® at 10E6 cells/mL, placed on side for cell-ECM attachment for 2 hours, and then placed on a modified rocker platform for continuous medium perfusion. Three days after seeding leak-tightness of the Caco-2 tubules was tested by replacing the medium in the top perfusion channel with medium containing 0.25 mg/mL TRITC dextran 150 kDa. […] Medium in the top medium channel was replaced with medium with TRITC-dextran and increasing concentrations of aspirin. Plate was placed in the ImageXpress Micro XLS under temperature and CO2 controlled conditions and imaged for fluorescent (TRITC) signal every hour for 13 hours. A dose response curve can be extracted at every time point from the time-lapse of the exposed Caco-2 tubes. GraphPad Prism 6 (GraphPad Software Inc., La Jolla, Calif.) was used to fit the dose response curve based on nonlinear regression of the logarithm of the compound concentration versus the normalized fluorescence assuming a top and bottom plateau at 0 and 100% fluorescence.

LLC-PK1 tubules = experiment: Barrier integrity assay, LLC-PK1 tubules with staurosporin exposure (FITC-dextran 150 kDa leakage); format: cell-based, pig; settings: 0, 1, 5 or 10 μM in top perfusion channel, imaged every 15 min for 16 hours
Procedure: The integrity of a cellular barrier, cultivated for example as described in FIGS. 1 and 2, can be probed by replacing the medium in the perfusion channel by medium containing 500 μg/mL FITC-dextran 150 kDa (Sigma, 46946). A) If the cellular barrier is leak-tight the fluorescent signal will be contained in the perfusion channel, whereas in the microfluidic chip with no cells, just ECM in the gel channel, the fluorescent signal will enter the ECM and will saturate within minutes. The fluorescent signal in the perfusion and gel channel can be monitored real time using time-lapse fluorescent microscopy, as for example with the ImageXpress Micro (Molecular Devices). B) Fluorescent signal intensity of the FITC-dextran 150 kDa was quantified in the top perfusion channel and in the gel channel using FIJI analysis software (Schindelin, J.; Arganda-Carreras, I. & Frise, E. et al. (2012), “Fiji: an open-source platform for biological-image analysis”, Nature methods 9(7): 676-682, PMID 22743772). C) The intensity of the gel channel was divided by the intensity of the top perfusion channel and the ratio was plotted against the time after start of fluorescent reporter addition. Without a cellular barrier the ECM is saturated within minutes after dye addition whereas a ratio close to zero is maintained as long as the cellular barrier is intact. […]

MDCK tubules [4] = experiment: Barrier integrity assay, MDCK tubules with staurosporin exposure (FITC-dextran 150 kDa leakage); format: cell-based, canine; settings: 0, 1, 4, 7 or 10 μM in top perfusion channel, imaged every hour for 15 hours
Procedure: MDCK (canine) cell line was seeded at 10*10^6 cells/mL in the top perfusion channel of a 400 μm 3-lane OrganoPlate® against a collagen I ECM (Cultrex, Amsbio, 3447-020-01, 4 mg/mL). 60 μL of medium was added to the medium inlet and outlet of the top perfusion channel. Plate was incubated on its side for 3 hours to allow cells to settle on top of the ECM. Three hours after seeding 60 μL medium was added to the medium inlet and outlet of the bottom perfusion channel and plate was placed on a rocker platform for continuous medium perfusion (angle 7°, tilt every 8 min). […] Volumes were 40 μL inlet/30 μL outlet in top perfusion channel, 0 μL inlet/0 μL outlet in the middle ECM channel, 20 μL inlet/20 μL outlet standard culture medium in the bottom perfusion channel. […]
Fluorescent signal intensity of the FITC-dextran 150 kDa was quantified in the top perfusion channel and in the gel channel of FIG. 4 using FIJI analysis software (Schindelin, J.; Arganda-Carreras, I. & Frise, E. et al. (2012), “Fiji: an open-source platform for biological-image analysis”, Nature methods 9(7): 676-682, PMID 22743772). […] The time-to-leakage value (e.g. 2 hours after compound addition) will have to be determined based on validation experiments to ensure maximal in vivo relevance. […]

[5] = tested on: human proximal tubule cells (RPTEC); experiment: Drug induced loss of barrier integrity of human kidney proximal tubule (RPTEC), Kaplan-Meier plot; format: cell-based; settings: RPTEC tubules; increasing concentrations; imaged every hour for 60 hours; versus medium, vehicle control 1 and 2
Text: After eight days in culture >95% of the seeded tubules were shown leak-tight by addition of FITC-dextran 150 kDa to the medium in the luminal compartment. Medium in the tubes was replaced with medium containing increasing concentrations of the renal toxicant amphotecerin B and the fluorescent FITC-dextran. […] IC indicates an inhibitor cocktail of 3 efflux transporter inhibitors.

In the case of `CC(=O)Oc1ccccc1C(=O)O` [aspirin], the “loss of barrier integrity” value (Caco-2 tubules [1]; 3.7 mM) is reported as “loss of barrier integrity”, the “exposure time at which a 50% effect was observed” value (Caco-2 tubules [1]; 12 mM) is reported as 20 h and the “loss of barrier integrity” value (Caco-2 tubules [1]; 12 mM (12.12 mM)) is reported as “clear loss of barrier integrity”. The “exposure time at which a 50% effect was observed” value (Caco-2 tubules [1]; 40 mM) was 10 h and the “loss of barrier integrity” value (Caco-2 tubules [1]; 40 mM) was “clear loss of barrier integrity”.

For `N.N.[Cl][Pt][Cl]` [cisplatin], the “time-to-leak, tubes exposed from the basal side versus apical exposed tubes” value (MDCK tubules [2]) was “significantly earlier”.

For `CN[C@@H]1C[C@H]2O[C@@](C)([C@@H]1OC)n1c3ccccc3c3c4c(c5c6ccccc6n2c5c31)C(=O)NC4` [staurosporin], the “dose response curve of barrier leakage with increasing exposure times” value (Caco-2 tubules [3]) was “shift towards lower compound concentrations”, the “integrity of the LLC-PK1 barrier with increasing concentrations” value (LLC-PK1 tubules) was “breaks at an earlier time point” and the “integrity of the MDCK barrier with increasing concentrations” value (MDCK tubules [4]) was “breaks at an earlier time point”.

In the case of amphotecerin B, the “survival of tube integrity, exposed versus unexposed tubes” value [5] is reported as “significant difference”.
